Melting point data for 108 compounds are collected here from a melting point compilation (Tetko et al.).

As a reminder, the melting point is the temperature of the solid-liquid transition.

Each structure is given as a SMILES string.

In the case of `CCOC(=O)C1CN(Cc2ccco2)C(=O)C1=O` (stereo not drawn), the melting point fell in the range of 127 to 129 °C. Regarding `C=C(O[Si](C)(C)C)c1c(C)c(C)c(C)c(C)c1C`, the melting point was 41 °C. Compound `c1ccc(N=Nc2ccc(N=Nc3ccc(/N=N/c4ccc(N=Nc5ccccc5)cc4)cc3)cc2)cc1` gave a melting point of 275 °C.

Compound `CCN(CC)c1ccc(C=C2SC(=S)NC2=O)cc1` showed a melting point of 163 °C. Then `COc1ccccc1-c1nnc2n1CN(c1ccccc1)CS2`, with 165 °C; and `NNC(=S)Nc1ccc(Cl)cc1Cl`, with 169 °C; and `C=C(C)C(=O)Nc1ccc(Cl)c(Cl)c1`, with 128 °C. `COC(=O)c1[nH]c2ccccc2c1C(=O)OC` gave a melting point of 112 to 115 °C.

Compound `CCCCCCCC(=O)OCCC` registered a melting point of -46.2 °C. Then `O=[N+]([O-])c1cc(C2CCCCC2)c(O)c([N+](=O)[O-])c1`, with 107 °C; and `COc1ccc(C(=O)c2ccc(Cl)cc2Cl)cc1OC`, with 128 °C.

In the case of `Cc1ccnc(Cl)n1`, the melting point came out at 47 °C. For `CCC1Oc2ccccc2C(=O)NC1=O` (stereo not drawn) the value was 162 to 164 °C; for `Oc1cccc2c(O)nccc12`, 270 to 275 °C; for `C[C@]12CCC(=O)C[C@H]1CC[C@@H]1[C@@H]2CC[C@]2(C)CCC[C@@]12O`, 139 to 140 °C.

Take `Cc1nccn1-c1ccccc1N`: the melting point lay within 132 to 134 °C. As to `Cc1c(C)c(C)c(O)c(C)c1C`, the melting point was 128 °C.

Turning to `Clc1cc(Cl)c2cc(Cl)cc(Cl)c2c1`, the melting point stood at 180 °C.

`Cc1cc(C)c(CC(=NOCc2ccccc2)c2cc3cc(Br)ccc3o2)c(C)c1` showed a melting point of 126 to 127 °C. The compound `O=c1c(O)c(-c2ccc(O)cc2O)oc2cc(O)cc(O)c12` returned a melting point of 304 °C. For `CC(C)(C)OC(=O)N[C@@H](Cc1c[nH]cn1)C(=O)O` the value was 196 to 199 °C.

`CCCCCCCCCCCCOS(=O)(=O)c1ccc(C)cc1` yielded a melting point of 28.5 to 31.5 °C. As for `COc1ccc(C2Nn3c(nnc3-c3cccnc3)S2)cc1` (stereo not drawn), the melting point stood at 219 °C. Then `Cc1c(Cl)cc(F)cc1S(N)(=O)=O`, with 118 to 120 °C; and `CC(CO)NC(=O)C1C=C2c3cccc4[nH]cc(c34)CC2N(C)C1` (stereo not drawn), with 162 °C. As to `Cc1ccc(C(O)c2ccc(C)cc2)cc1`, the melting point stood at 71 °C. For `O=C(O)CCc1ccccc1O` the value was 87 °C; for `CCOC(=O)CCc1ccc2c(c1)NC(=O)CC2`, 124 °C; for `N#Cc1cn(-c2ccccc2Cl)c(=O)[nH]c1=O`, 255 to 258 °C. As to `O=C1CN(N=Cc2ccc(-c3ccc([N+](=O)[O-])cc3)o2)C(=O)N1`, the melting point was 280 °C. Then `O=C(c1ccc(F)cc1)[C@H]1CCCC[C@H]1C(=O)O` (relative stereo), with 136 to 139 °C; and `CC(=O)OC1CC2C(C)(C)CCCC2(C)C2=C1C(=O)C(C(C)C)=C(O)C2=O` (stereo not drawn), with 213 °C.

For the compound `CC(C)(C)c1cc(C(F)(F)F)nc(N)n1`, the melting point fell in the range of 48 to 50 °C.

`O=C(C(C(=O)N1CCCCC1)c1ccccc1)N1CCCCC1` showed a melting point of 144 °C. In turn, `CCOC(=O)CC(=O)C(F)(F)F` registered a melting point of -39 °C.

The compound `CC1=CS(=O)(=O)c2ccc(Cl)cc21` came in with a melting point of 168 to 172 °C. Then `CCOC(=O)c1ccc(NC)c(N)c1`, with 87 to 88 °C; and `NC(=O)N1c2ccccc2C=Cc2ccccc21`, with 190 °C; and `Sc1nccc(-c2ccco2)n1`, with 200 °C. For `CC(=O)/C(=N\Nc1cc(Cl)ccc1Cl)C(=O)C(F)(F)F` the value was 83 to 85 °C; for `O=S(=O)(Cl)c1ccc2nsnc2c1`, 69 to 74 °C. In turn, `COc1cc2c(cc1OC)C(C(=O)O)C2` (stereo not drawn) gave a melting point of 134 to 143 °C. With `O=C(O)c1cc(Cl)sc1Cl`, the melting point was 148 °C.

Turning to `CCCCCCCCCCCCCCCc1cccc(O)c1O`, the melting point is 59.5 °C.

Take `Nc1ccc(-c2ccc(N)cc2)cc1`: the melting point was found to be 124 °C. Then `OC[C@H]1CC[C@H](CO)CC1`, with 61 to 66 °C; and `N#Cc1cc(F)c(F)c(F)c1`, with 46 °C. The compound `O=C(O)Cc1ccc(F)cc1Cl` displayed a melting point of 104 °C. Consider `C=C(C)CCCCCCCCCCCCC`, for which the melting point is -7 °C. For the compound `Cc1ccc(OC2CCC3C4CCC5CC(=O)CCC5(C)C4CCC23C)cc1` (stereo not drawn), the melting point lay within 148 to 153 °C. Take `Cc1cc(Cl)ccc1N=CN(C)C`: the melting point is 35 °C. Then `Oc1ccc(F)c2cccnc12`, with 110 °C; and `Clc1cc(Cl)c(OCC#CI)cc1Cl`, with 114 °C; and `CCC1(C)CC(=O)NC1=O` (stereo not drawn), with 65 °C.

`CC12CCC(=O)C=C1CCC1C3CCC(O)(C(=O)CO)C3(C)CC(O)C12F` (stereo not drawn): the melting point was determined as 261 °C. As for `Cn1ccc(C(=O)O)n1`, the melting point amounted to 154 °C. Compound `O=C1c2ccccc2C(=O)N1CO` came in with a melting point of 144 °C. For `ClCC1CN(Cc2ccccc2)CCO1` (stereo not drawn) the value was 46 to 50 °C. Then `N#CC(C#N)=Cc1ccc(O)cc1`, with 189 °C; and `O=Nc1ccc(O)c2ncccc12`, with 245 °C. For `CC1=C(C(=O)OCc2ccccc2)C(c2cccc([N+](=O)[O-])c2)NC(=S)N1` (stereo not drawn) the value was 176 °C; for `COc1ccc(C(=O)c2ccc(-c3ccccc3)cc2)cc1OC`, 107 to 109 °C.

Compound `CC(C)(C)c1cc(C(C)(C)C)n(-c2ccc(N)cc2)n1` returned a melting point of 205 to 207 °C. For `CCC1N(O)C(C)(C)C(C(=O)O)=[N+]1[O-]` (stereo not drawn) the value was 98.8 to 99 °C; for `O=P(OCCCl)(OCCCl)OCCCl`, -35 °C; for `c1ccc2c(c1)cc1ccc3cc4ccccc4c4ccc2c1c34`, 282 °C. Consider `CCN(CC)CCC1(c2ccccc2)C(=O)Oc2ccccc21` (stereo not drawn), for which the melting point was determined as 43.4 °C. Then `O=S1(=O)OC(c2cc(Br)c(O)c(Br)c2)(c2cc(Br)c(O)c(Br)c2)c2c(Br)c(Br)c(Br)c(Br)c21`, with 203 to 205 °C; and `O=C(O)c1cc(I)c(I)c(I)c1`, with 292 °C.

As to `O=C(CBr)c1cccc([N+](=O)[O-])c1`, the melting point amounted to 94 °C.

Consider `CCCCCOc1ccc(/N=N/c2ccc(CCCC)cc2)cc1Cl`, for which the melting point stood at 41.5 °C. In turn, `COc1ccc(C(O)C(=O)O)cc1` (stereo not drawn) came in with a melting point of 108 to 111 °C.

The compound `CCOc1ccc2nc(S(N)(=O)=O)sc2c1` showed a melting point of 188 °C.

For the compound `Cc1cc(C)n2nc(N)c(/N=N/c3ccccc3C)c2n1`, the melting point was 256 °C. Compound `Nc1cc(Cl)c([N+](=O)[O-])cc1Cl` registered a melting point of 155 °C. `CC(C)S(=O)(=O)c1cnc(-c2ccccn2)nc1N` gave a melting point of 147 to 150 °C. Then `COc1ccc(-c2ccccc2)cc1N`, with 81 to 84 °C; and `CC(C)C1OC(=O)C2CCC1(C)OC2(C)C` (stereo not drawn), with 120 °C; and `O=C(O)C=Cc1cc(F)cc(F)c1`, with 205 °C.

Consider `C/C(=N\c1ccc(C(=O)O)cc1)c1c(O)c2ccccc2n(-c2ccccc2)c1=O`, for which the melting point lay in the range of 236 to 238 °C. Compound `OC1Cc2cccc3cccc1c23` (stereo not drawn) registered a melting point of 148 °C.

`CCN(CC)C(=O)Cl` had a melting point of -32 °C. Then `N#Cc1ccc(N2CCCNCC2)nc1`, with 63 to 65 °C; and `COc1cc(/C=C\C(=O)NCCc2ccc(OCc3ccccc3)c(OC)c2)ccc1OCc1ccccc1`, with 163 °C; and `COc1ccc2cc([N+](=O)[O-])ccc2c1C=O`, with 174 °C. For `Cc1nc(-c2ccc(N)cc2)no1` the value was 113 to 114 °C.

`c1ccc2c(c1)OCCOCCNCCOCCO2` returned a melting point of 147 to 149 °C.

In turn, `COC(=O)C1=C(C(=O)OC)C2(COC(=O)C(C)NC(C)=O)c3ccccc3C1c1ccccc12` (stereo not drawn) displayed a melting point of 180 °C. Then `COc1cc(Cc2nccc3cc(OC)c(O)cc23)ccc1O`, with 209 °C. As to `O=C(O)c1ccc(-c2ccccc2)nc1`, the melting point lay in the range of 243 to 245 °C. The compound `CC(=O)Nc1cc(NS(=O)(=O)C(F)(F)F)c(C)cc1C` returned a melting point of 184 °C.

In turn, `NC(=O)[C@@H]1CC=CC[C@H]1N` (relative stereo) yielded a melting point of 163 to 167 °C. For `Nc1ccc(F)c(F)c1` the value was 21 °C. `CC(C)(C)OC(=O)C(C)(C)Sc1ccc(Cl)cc1`: the melting point lay within 44 to 46 °C. Then `O=C1/C(=C/c2ccccc2)SC(=S)N1CN1CCOCC1`, with 121 °C; and `O=[N+]([O-])c1ccc(-n2ncc3cccnc32)c([N+](=O)[O-])c1`, with 181 to 187 °C. For `CC(=O)Nc1cc(CCNC(=O)c2ccccc2)ccc1CCNC(=O)c1ccccc1`, the melting point turned out to be 176 °C. In turn, `ClCCC(Cl)Cl` had a melting point of -59 °C. As to `O=[N+]([O-])c1ccc(CN2CCOCC2)cc1`, the melting point was 79.6 to 80 °C. For `O=C(Oc1c(F)c(F)c(F)c(F)c1F)c1cccnc1` the value was 65.5 to 67 °C.

For the compound `Nc1cccc(-c2cccnc2)c1`, the melting point lay in the range of 74 to 78 °C. Then `N=C1NC(=O)CS1`, with 249 °C; and `O=C(O)c1cc(O)ccc1F`, with 205 °C. The compound `COc1ccc(-n2ncc(C(=O)O)c2C)cc1` showed a melting point of 212 to 213 °C. `O=[N+]([O-])c1ccccc1C(F)(F)F` returned a melting point of 32.5 °C.

`NC(=O)c1cnn(CCO)c1N` had a melting point of 239 °C. Then `CCOC(=O)c1cc2cc([N+](=O)[O-])ccc2[nH]1`, with 220 to 225 °C; and `CCCCCCCCCCOC(=O)c1ccccc1C(=O)OCCCCCC`, with -4 °C.
